Measurements reported in ChEMBL document CHEMBL5046245, “Identification of Pyruvate Carboxylase as the Cellular Target of Natural Bibenzyls with Potent Anticancer Activity against Hepatocellular Carcinoma via Metabolic Reprogramming” (J Med Chem, 2022).
The source made the active and inactive calls. The calls are words filed in the database; no cut-off is given here.

What was measured:
[1] = test system: MHCC97; assay: Antiproliferative activity against human MHCC97 cells assessed as inhibition of cell growth measured after 48 hrs by MTT assay; format: functional, cell-based; conditions: MHCC97, 48 h
[2] = test system: SK-HEP1; assay: Antiproliferative activity against human SK-HEP1 cells assessed as inhibition of cell growth measured after 48 hrs by MTT assay; format: functional, cell-based; conditions: SK-HEP1, 48 h
[3] = Antiproliferative activity against human HCCLM3 cells assessed as inhibition of cell growth measured after 48 hrs by MTT assay; format: functional, cell-based; conditions: HCCLM3, 48 h
[4] = test system: HepG2; assay: Antiproliferative activity against human HepG2 cells assessed as inhibition of cell growth at 10 to 200 nM measured up to 3 days by MTT assay; format: functional, cell-based; conditions: dose 10-200 nM, time day <=3, TDE = time-dependent effect
[5] = test system: HepG2; assay: Effect on cell cycle arrest in human HepG2 cells assessed as increase accumulation of cells in G2/M phase at 20 nM measured upto 24 hrs hrs by propidium iodide staining based flow cytometry analysis; format: functional; conditions: time hrs <=24, TDE = time-dependent effect
[6] = test system: HCCLM3; assay: Antimigratory activity in human HCCLM3 cells assessed as inhibition of scratch closure at 0.05 to 1 nM measured after 24 hrs by wound healing assay; format: functional, cell-based; conditions: dose 0.05-1 nM
[7] = test system: HCCLM3; assay: Inhibition of epithelial-mesenchymal transition in human HCCLM3 cells assessed as decrease in N-cadherin expression at 0.05 to 1 nM incubated for 24 hrs by Western blot analysis; format: functional, cell-based; conditions: dose 0.05-1 nM
[8] = test system: HCCLM3; assay: Inhibition of epithelial-mesenchymal transition in human HCCLM3 cells assessed as decrease in fibronectin expression level at 0.05 to 1 nM incubated for 24 hrs by Western blot analysis; format: functional, cell-based; conditions: dose 0.05-1 nM
[9] = test system: HepG2; assay: Induction of apoptosis in human HepG2 cells assessed as cell shrinkage at 100 nM incubated for 24 hrs by DAPI staining based phase contrast microscopic analysis; format: functional
[10] = test system: HepG2; assay: Induction of apoptosis in human HepG2 cells assessed as activation of caspase 3 measured after 24 hrs by Western blot analysis; format: functional, cell-based; conditions: dose 10-40 nM
[11] = test system: HepG2; assay: Induction of apoptosis in human HepG2 cells assessed as increase cleaved PARP level measured after 24 hrs by Western blot analysis; format: functional, cell-based; conditions: dose 10-40 nM
[12] = Toxicity in NCR-nu/nu mouse bearing human HepG2 tumor assessed as effect on body weight at 25 to 50 mg/kg, ip administered alternate days for 21 days and measured every three days; format: organism-based; conditions: in vivo, 504 h, dose 25-50 mg/kg, time 21 day
[13] = test system: HepG2; assay: Induction of apoptosis in human HepG2 cells xenografted in NCR-nu/nu mouse assessed as increase in total apoptotic cells in tumor at 50 mg/kg, ip administered alternate days for 21 days and measured 26 days post implantation by TUNEL staining based confocal microscopic analysis; format: functional, organism-based; conditions: time 21.0 day
[14] = test system: HCCLM3; assay: Induction of apoptosis in human HCCLM3 cells xenografted in NCR-nu/nu mouse assessed as increase in total apoptotic cells in tumor at 25 to 50 mg/kg, ip administered alternate days for 21 days and measured 26 days post implantation by TUNEL staining based confocal microscopic analysis; format: functional, organism-based; conditions: dose 25-50 mg/kg, time 21.0 day
[15] = Systemic toxicity in NCR-nu/nu mouse bearing human HCCLM3 tumor assessed as pathological change in lung at 25 to 50 mg/kg, ip administered alternate days for 21 days and measured 26 days post implantation by H and E staining based analysis; format: organism-based; conditions: in vivo, 504 h, dose 25-50 mg/kg, time 21 day
[16] = Systemic toxicity in NCR-nu/nu mouse bearing human HCCLM3 tumor assessed as pathological change in kidney at 25 to 50 mg/kg, ip administered alternate days for 21 days and measured 26 days post implantation by H and E staining based analysis; format: organism-based; conditions: in vivo, 504 h, dose 25-50 mg/kg, time 21 day
[17] = Inhibition of pyruvate carboxylase in human HepG2 cells measured upto 24 hrs by PC assay kit; format: cell-based
[18] = Inhibition of pyruvate carboxylase in human HCCLM3 cells measured upto 24 hrs by PC assay kit; format: cell-based
[19] = test system: HepG2; assay: Inhibition of pyruvate carboxylase in human HepG2 cells measured at 0.001 to 10 nM for 24 hrs; format: cell-based; conditions: dose 0.001-10 nM
[20] = test system: HCCLM3; assay: Induction of apoptosis in human HCCLM3 cells assessed as decrease in cell viability at 20 to 40 nM incubated for 48 hrs in presence of 2 mM OAA MTT assay; format: functional, cell-based; conditions: dose 20-40 nM
[21] = test system: HCCLM3; assay: Cytotoxicity against PC knockout human HCCLM3 cells assessed as reduction in cell viability at 20 to 100 nM measured after 48 hrs by MTT assay; format: functional, cell-based; conditions: dose 20-100 nM
[22] = test system: HepG2; assay: Induction of apoptosis in human HepG2 cells transfected with PC-flag plasmid assessed as reduction in cell viability at 20 to 100 nM incubated for 48 hrs by MTT assay; format: functional, cell-based; conditions: dose 20-100 nM
[23] = test system: HCCLM3; assay: Anti-invasive activity against PC knockout human HCCLM3 cells assessed as suppression of cell invasion at 0.05 nM measured after 48 hrs by transwell assay; format: functional, cell-based
[24] = test system: SK-HEP1; assay: Antiproliferative activity against human SK-HEP1 cells transfected with PC-flag plasmid assessed as reduction in cell viability incubated for 48 hrs by MTT assay; format: functional, cell-based
[25] = test system: SK-HEP1; assay: Anti-invasive activity in human SK-HEP1 cells overexpressing PC assessed as suppression of cell invasion at 0.05 nM measured after 48 hrs by transwell assay; format: functional, cell-based
[26] = test system: SK-HEP1; assay: Inhibition of epithelial transition in human SK-HEP1 cells overexpressing PC assessed as effect on E-cadherin expression; format: functional, cell-based
[27] = test system: SK-HEP1; assay: Inhibition of mesenchymal transition in human SK-HEP1 cells overexpressing PC assessed as effect on N-cadherin expression; format: functional, cell-based
[28] = target: AMP-activated protein kinase, AMPK (Homo sapiens) (UniProt P54646+O43741+P54619+Q9UGJ0+Q9Y478+Q13131+Q9UGI9); assay: Activation of AMPK pathway in human HCCLM3 cells assessed as increase in AMPK phosphorylation level at 5 nM measured after 1 hr by Western blot analysis; format: cell-based; conditions: filed as activator
[29] = test system: HCCLM3; assay: Induction of glycolysis in human HCCLM3 cells assessed as decrease in level of oxaloacetate at 5 nM; format: functional, cell-based
[30] = test system: HCCLM3; assay: Induction of glycolysis in human HCCLM3 cells assessed as decrease in level of malate at 5 nM; format: functional, cell-based
[31] = test system: HCCLM3; assay: Induction of glycolysis in human HCCLM3 cells assessed as decrease in level of serine at 5 nM; format: functional, cell-based
[32] = test system: HCCLM3; assay: Induction of glycolysis in human HCCLM3 cells assessed as decrease in level of aspartate at 5 nM; format: functional, cell-based
[33] = test system: HCCLM3; assay: Induction of mitochondrial oxidative stress in human HCCLM3 cells assessed as accumulation of ROS at 10 nM by DCFH-DA staining based flow cytometry analysis; format: functional, cell-based; conditions: TDE = time-dependent effect
[34] = test system: HCCLM3; assay: Induction of mitochondrial oxidative stress in human HCCLM3 cells overexpressing PC assessed as accumulation of ROS at 10 nM by DCFH-DA staining based flow cytometry analysis; format: functional, cell-based
[35] = test system: HCCLM3; assay: Cytotoxicity against human HCCLM3 cells assessed as reduction in cell viability at 5 to 20 nM incubated for 48 hrs in presence of H2O2 by MTT assay; format: functional, cell-based; conditions: dose 5-20 nM
[36] = test system: HCCLM3; assay: Antiinvasive activity against human HCCLM3 cells assessed as reduction in cell invasion at 0.05 to 1 nM by matrigel transwell assay; format: functional, cell-based; conditions: dose 0.05-1 nM

Question: With `COc1ccc(CCc2cc(OC)c(OC)c(OC)c2)cc1O` as the compound, how does the IC50 [1] read?
Answer: Its IC50 is 0.386 µM.

Question: What about the IC50 [2] of the same compound?
Answer: Its IC50 is 0.757 µM.

Question: And the IC50 [3]?
Answer: Its IC50 is 0.0177 µM.

Question: What about the Activity [4] of the same compound?
Answer: Its Activity is “Tde”.

Question: What about the Activity [5] of the same compound?
Answer: The Activity was “Tde”.

Question: And the Activity [6]?
Answer: Its Activity is “Active”.

Question: And the inhibition [7]?
Answer: Its inhibition is “Active”.

Question: What about the inhibition [8] of the same compound?
Answer: The inhibition was “Active”.

Question: What about the Activity [9] of the same compound?
Answer: Its Activity is “Active”.

Question: And the Activity [10]?
Answer: The Activity was “Dose-Dependent Effect”.

Question: And the Activity [11]?
Answer: The Activity was “Dose-Dependent Effect”.

Question: And the Activity [12]?
Answer: Its Activity is “Non-Toxic”.

Question: And the Activity [13]?
Answer: The Activity was “Active”.

Question: And the Activity [14]?
Answer: The Activity was “Active”.

Question: And the Activity [15]?
Answer: The Activity was “Non-Toxic”.

Question: What about the Activity [16] of the same compound?
Answer: The Activity was “Non-Toxic”.

Question: And the IC50 [17]?
Answer: Its IC50 is 0.00935 µM.

Question: And the IC50 [18]?
Answer: Its IC50 is 13.1 µM.

Question: What about the inhibition [19] of the same compound?
Answer: The inhibition was “inactive”.

Question: What about the Activity [20] of the same compound?
Answer: Its Activity is “inactive”.

Question: And the Activity [21]?
Answer: The Activity was “inactive”.

Question: And the Activity [22]?
Answer: Its Activity is “inactive”.

Question: What about the Activity [23] of the same compound?
Answer: Its Activity is “Active”.

Question: What about the Activity [24] of the same compound?
Answer: Its Activity is “Active”.

Question: And the Activity [25]?
Answer: Its Activity is “Active”.

Question: And the inhibition [26]?
Answer: The inhibition was “inactive”.

Question: And the inhibition [27]?
Answer: Its inhibition is “inactive”.

Question: What about the Activity [28] of the same compound?
Answer: Its Activity is “Active”.

Question: What about the Activity [29] of the same compound?
Answer: The Activity was “Active”.

Question: And the Activity [30]?
Answer: The Activity was “Active”.

Question: And the Activity [31]?
Answer: The Activity was “Active”.

Question: And the Activity [32]?
Answer: Its Activity is “Active”.

Question: And the Activity [33]?
Answer: Its Activity is “Tde”.

Question: And the Activity [34]?
Answer: Its Activity is “inactive”.

Question: And the Activity [35]?
Answer: The Activity was “Active”.

Question: What about the Activity [36] of the same compound?
Answer: Its Activity is “Active”.
